# Source: US20150125550A1, “APPLICATION OF 2,9-DI-SEC-BUTYL-1,10-PHENANTHROLINE AS A GLIOBLASTOMA TUMOR CHEMOTHERAPY” (priority 2013, published 2015)
# Like-named read-outs stand apart in the source and are kept apart here.
# How the values were obtained:
# [1] = tested on: primary murine astrocytes; assay: SRB toxicity assay on primary murine astrocytes; assay type: cell-based, murine (C57BL/6); details: Mus musculus, Astrocyte
# Description: (§1) The murine (C57BL/6) glioma cell line, GL-26, which is highly tumorigenic in the C57BL/6 mice. GL-26 cells were cultured in DMEM/F12 supplemented with 10% FCS, 1% penicillin/streptomycin, 1% L-glutamine and 1% non-essential amino acids. Human foreskin fibroblasts (HFFs) were cultured in DMEM/F12 supplemented with 10% FCS and 1% penicillin/streptomycin. Primary murine astrocytes were purified from C57BL/6 neonate brains and cultured in DMEM/F12 supplemented with 10% FCS, 1% non-essential amino acids, 1% Lglutamine, 50 IU/ml penicillin, […] and 10 mM Hepes buffer.
# (§2) The sulforhodamine B (SRB) cytotoxicity assays were adapted from Skehan et al. (22). Briefly, either HFF, primary astrocytes or GL-26 cells were plated in 96-well plates at a density of 4,000 cells/well in a volume of 100 µL overnight at 37° C. and 5% CO2. DMSO stock solutions of SBP, MSBP or TMZ were used at a concentration range of 0.1-25 μM for 48 hr before the supernatant was discarded and the cells were fixed for 1 hr with 10% cold trichloroacetic acid (100 μL, per well). Cells used in recovery assay received fresh media for 48 hrs following the 48 hr drug incubation. The plate was then washed 5 times with de-ionized water, air dried, and stained with 0.4% SRB for 10 min (50 μL, per well). After washing 5 times in 1% acetic acid and air-drying, bound SRB was dissolved in 10 mM unbuffered Tris base (pH 10.5; 100 μL, per well). Bound SRB was then read by absorbance at 492 nm on a SpectraMax plate reader (Molecular Devices). The percent survival was then calculated based upon the absorbance values relative to control wells (0 μM SBP in 0.1% DMSO).
# [2] = tested on: A549 and H1703 lung cancer lines, and 886LN, Tu212, and Tu686 head/neck cancer lines; details: head-neck and lung tumor lines; cited from earlier work
# [3] = tested on: GL-26 glioma cells; assay: SRB growth assay, GL-26 glioma cells, 48 hr drug incubation; assay type: cell-based, murine (C57BL/6); details: for IC50: SRB, read-out: IC50 against GL-26 tumor cells
# Description: as §1, §2
# [4] = tested on: GL-26 glioma cells; assay: SRB recovery assay (48 hr drug, then 48 hr fresh media); assay type: cell-based, murine (C57BL/6); details: 48 hr drug + 48 hr recovery
# Description: as §2
# To test if constant SBP administration is necessary to maintain growth inhibition, an SRB recovery assay was performed where GL-26 cells were plated and treated as above, but SBP was removed after a 48-hour incubation and replaced by fresh media. […]
# [5] = tested on: human foreskin fibroblasts (HFFs); assay: SRB toxicity assay on human foreskin fibroblasts; assay type: cell-based; details: Fibroblast
# Description: as §1, §2
# [6] = Peripheral pathology and liver toxicity in non-tumor bearing mice; assay type: in vivo, C57BL/6 mice
# Description: (§3) Histology: For brain tumor histology, mice were perfused intracardially with 4% formaldehyde in Na+/K+ balanced PBS and brains were extracted, incubated in 4% formaldehyde overnight followed by 30% sucrose in Na+/K+ balanced PBS. Brains were flash frozen in isopentane, embedded in optimal cutting temperature compound (OCT), cryosectioned in coronal sections (12 μm) and stained with hematoxylin and eosin. Another cohort of equivalently drug-treated mice was used for liver, lung and gut histology. The mice were then sacrificed on day 19, and the liver, lung and gut tissues were collected and placed in 4% formaldehyde in Na+/K+ balanced PBS overnight. The organs were then placed for 48 hrs in 70% EtOH before paraffin embedding and sectioning at 6 μm. Sections were then stained with hematoxylin and eosin and pathology was assessed blindly and independently by a trained pathologist. A TUNEL staining kit was obtained from TREVIGEN (NeuroTACS II In Situ Apoptosis Detection Kit, Cat#4823-30-K) and used for both ex-vivo slices and in-vitro staining according to manufacturers instructions.
# Intra-cardial blood was collected from the non-tumor bearing mice and subjected to centrifugation for 10 minutes to collect the serum. Aspartate transaminase and Alanine transaminase levels were measured in the serum using Bio Scientific (3913 Todd Lane Suite 312 Austin, Tex.) colorimetric kits (Cat#5605-01 and 3460-08 respectively).
# To test if the low level of growth inhibition noted in HFF cells translated into lower systemic toxicity in-vivo, non-tumor bearing control and treatment groups of mice were treated with saline and SBP (10 mg/kg), respectively, on days one, seven, and 13. On day 19 following the first SPB or saline injection, the liver, lungs and proximal small intestine were collected for histopathological analysis.
# [7] = tested on: GL-26 glioma cells; assay: TUNEL apoptosis staining of cultured cells; assay type: cell-based, murine (C57BL/6)
# Description: as §3
# [8] = tested on: GL-26 glioma cells; assay: Propidium iodide cell cycle analysis by flow cytometry; assay type: cell-based, murine (C57BL/6); details: SBP 48 hours
# Description: GL-26 cells were plated at 4000 cells/well in a 96 well plate in GL-26 media (DMEM/F12 supplemented with 10% FCS, 1% penicillin/streptomycin, 1% L-glutamine and 1% non-essential amino acids). The cells were treated 1 day post-plating with 0.1-25 μM SBP for 48 hours. The cells were then detached with Trypsin/EDTA (Cellgro), washed and resuspended at 500,000 cells/ml in ice cold Na+/K+ balanced PBS and fixed by gently adding 70% ethanol and incubating for 2 hrs at 4° C. GL-26 cells were then resuspended in 300-500 μl PI/Triton X-100 staining solution: 10 ml of 0.1% (v/v) Triton X-100 (Sigma) in Na+/K+ balanced PBS with 2 mg DNAse-free RNAse A (Sigma) and 0.40 ml of 500 μg/ml PI (Roche). The stain was allowed to incubate at 37° C. for 15 minutes before acquisition on a BD FacsCanto II flow cytometer.
# [9] = 10 mg/kg days 1, 7, 13, day 19, non-tumor bearing mice
smiles,measurement,setting,value
"CCC(C)c1ccc2ccc3ccc(C(C)CC)nc3c2n1 (centres unmarked) [Compound 1, 2,9-di-sec-butyl-1,10-phenanthroline]",inhibition at 6 µM,"[1]; 6 μM, 48 hours, read-out: astrocyte growth inhibition",18%
same,inhibition at 25 µM,"[1]; 25 μM, 48 hours, read-out: astrocyte growth inhibition",37.3 ± 0.9%
same,IC50,"[1]; not reached at 25 μM, read-out: IC50 on non-cancerous glial cells (astrocytes)",> 25 µM
same,IC50 times lower than cisplatin,[2],20-100 times
same,IC50 times lower than the parent gold(III) complex,[2],4-14 times
same,in-vitro IC50 values,[2],in the nanomolar concentration regime
same,inhibition at 6 µM,"[3]; Mus musculus, GL26, 6 μM, read-out: GL-26 cell growth inhibition",66 ± 1%
same,inhibition at 25 µM,"[3]; Mus musculus, GL26, 25 μM, read-out: GL-26 cell growth inhibition",67 ± 0.5%
same,IC50,"[3]; Mus musculus, GL26, 48 h",3 to 6 µM
same,IC50,[3]; listed as SBP,3 µM
same,GL-26 cell growth inhibition 48 hours after completion of treatment,[4]; 0.8 mM SBP (so in the source),31.5±6.6%
same,GL-26 cell growth inhibition after extra incubation period,[4]; 1.6-25 mM SBP (so in the source),up to 85.4±0.2%
same,inhibition at 6 µM,"[5]; 6 μM, 48 hours, read-out: HFF growth inhibition",~20%
same,inhibition at 25 µM,"[5]; 25 μM, 48 hours, read-out: HFF growth inhibition",36.9 ± 1.3%
same,IC50,"[5]; not reached at 25 μM, read-out: IC50 on non-cancerous human fibroblast cells",> 25 µM
same,"histopathology, duodenum","[6]; 10 mg/kg days 1, 7, 13, day 19",no general pathology
same,"histopathology, liver","[6]; 10 mg/kg days 1, 7, 13, day 19","some endothelial damage, but no overt hepatocyte damage"
same,"histopathology, lung","[6]; 10 mg/kg days 1, 7, 13, day 19",no overt pathology
same,serum alanine transaminase (ALT),[6]; [9],49.71±14.61 U/L
same,serum aspartate transaminase (AST),[6]; [9],212.3±14.62 U/L
same,side effects in healthy mice,"[6]; mouse, in vivo",did not appear to experience any significant side effects
same,apoptosis (TUNEL) in cultured GL-26 cells,[7],kills GL-26 cells by inducing apoptosis
same,cell cycle effect (propidium iodide),[8],not arrested in the G1 phase
